The text below walks through data of US8875704B2, “Nasal administration” (priority 2007, dated 2014).

Read-outs that look alike come from different tables or passages of the source.

One series concerns GTN-induced migraine. As to conditions: cited from earlier work.
The conditions of series [1]: intranasal, formulations containing cyclodextrins, rabbits; cited from earlier work.
Another series concerns allergic rhinitis. As to conditions: intranasal, humans; cited from earlier work.
The conditions of series [2]: nasal spray, cited from earlier work.
The conditions of series [3]: human, in vivo, inhaled or intranasal. On the procedure: In this study, the fraction absorbed nasally was calculated by preventing absorption via the GI tract through the use of charcoal.
For series [4] the following is noted: in vivo; cited from earlier work.
The conditions of series [5]: cited from earlier work.
The conditions of series [6]: rat, in vivo; cited from earlier work.

As to `O=[N+]([O-])OCC(CO[N+](=O)[O-])O[N+](=O)[O-]` [GTN, glyceryltrinitrate], the “subjects with a history of migraine in whom migraine is expected to be induced” value in the series on GTN-induced migraine (GTN challenge) is reported as 75%.
Take `CN1C[C@H](C(=O)N[C@]2(C)O[C@@]3(O)[C@@H]4CCCN4C(=O)[C@H](Cc4ccccc4)N3C2=O)C[C@@H]2c3cccc4[nH]cc(c34)C[C@H]21` [dihydroergotamine]: the “Tmax, powder versus liquid formulations” value in series [1] is reported as “broadly comparable”.
As for `O=C(O)c1cc(=O)c2c(OCC(O)COc3cccc4oc(C(=O)O)cc(=O)c34)cccc2o1` [sodium cromoglycate], in the series on allergic rhinitis, the “effectiveness, powder versus solution formulation” value was “somewhat more effective”.
On to `CNS(=O)(=O)Cc1ccc2[nH]cc(CCN(C)C)c2c1` [sumatriptan], for which, in the series with GTN-induced migraine (studies by others), the “time to reversal of GTN-induced excess of theta (more than 15%) after treatment” value is not above 30 min.
On to `CN(C)CCc1c[nH]c2ccc(C[C@H]3COC(=O)N3)cc12` [zolmitriptan], for which, in series [2] (GI absorption prevented with charcoal), the “fraction of nasal absorption” value was “about 30%”. For the same compound, in series [2], the “total BA” value was “about 40%”. In addition, the “ratio of nasal absorption fraction to total bioavailability (BA)” value in series [3] was “about 0.75”.
On to calcitonin, for which the “absorption, liquid versus powder formulations” value in series [4] is given as “comparable”.
Regarding elcatonin, the “bio-availability in vivo, powder formulation versus liquid” value in series [5] was “greater bio-availability”.
As for salmon calcitonin, in series [6], the “Tmax, powder versus liquid formulations” value is on record as “no apparent difference”.
